Data: US8563067B2, “Extended shelf life and bulk transport of perishable organic liquids with low pressure carbon dioxide” (Cornell Research Foundation, Inc., priority 2004, dated 2013)

Columns and labels:
Assay type in all cases: cell-based
[1] = test system: aerobic bacteria (SPC) in raw milk; experiment: Standard Plate Count (SPC) of raw milk held under CO2 pressure, laboratory scale (Example 1); settings: for SPC increase / SPC reduction from initial SPC: 20° C.; for SPC reduction versus control: 1378 kPa
Text: The apparatus for pressurizing and holding raw milk samples is shown in schematic form in FIG. 9 and consisted of two 13-ml stainless steel 1.27-cm OD cylindrical vessels 60, 61; one vessel 60 was pressurized while the other served as a control 61. Compressed and filtered CO2 from a high-pressure tank 62 was used (Empire Airgas, Inc, Elmira, N.Y.). The system consisted of pressure regulator 63, a fine metering valve 64 (NUPRO Company, Willoughby, Ohio), an on-off valve 65 (Circle Seal, Anaheim, Calif.) and a check valve 66 (NUPRO Company, Willoughby, Ohio). The fine metering valve controlled gas flow such that the time to reach desired pressure was less than five seconds. The gas entered the vertically positioned treatment vessel 60 from the bottom and was thus bubbled through the milk until the set pressure was reached. A check valve 66 was placed immediately before the inlet to the pressure vessel to prevent the backward flow of the fluid milk into the gas inlet line. The outlet of the vessels consisted of a pressure gauge 67 and a high-pressure release valve 68 (High Pressure Equipment, Erie, Pa.). The release valve 68 was kept tightly closed during treatment. The control vessel 61 was closed off from both ends but not connected to the carbon dioxide line inlet and outlet lines.
(§1) Milk samples were mixed and 5 ml of milk added into the treatment and control vessels. The treatment vessel was connected to the apparatus and the control vessel closed off. Both vessels were placed in the water bath. When the desired temperatures were attained in both treatment and control vessels, CO2 was introduced through the bottom of the treatment vessel until the set pressure was reached. The CO2 pressure was maintained throughout the test period. When the desired time was reached, the CO2 inlet was turned off, the pressure release valve on the outlet line opened, and the pressure released in under one minute. After depressurization, the treatment and control vessels were removed from the water bath and their external surfaces were wiped dry, sanitized with 95% ethanol, detached from the apparatus and transferred into sterile containers for dilution and plating.
Short (<1 h) and longer term (1, 4 and 9 day) experiments were conducted. Raw milk (Northeast Dairy Herd Improvement Association, Inc.; Ithaca, N.Y.) in 5 ml aliquots was treated at each of the following combinations of CO2 pressure, temperature, and time (kPa/° C./min): 1378/5/15, 2757/5/5, 3446/5/5. In longer term studies, raw milk from the T&R Center was first stored at 6° C./48 h so that the SPC were at detectable levels at treatment initiation. […]
Raw milk from the T&R Center was monitored for changes in aerobic bacteria, gram-negative bacteria and total Lactobacillus spp. as follows: CO2 pressures of 0 (control), 68, 172, 344, 516 and 689 kPa, at 6.1° C. for 4-days. SPC, gram-negative bacteria and total Lactobacillus spp. were enumerated before (day 0) and after (day 4) treatment. Gram negative bacteria were enumerated on MacConkey Agar (Difco Manual, Becton Dickinson & Co., Sparks, Md.), a selective and differential media which can be used to discriminate between lactose fermenting and non-lactose fermenting gram-negative bacteria. Use of this media allows a one-step method of obtaining estimates of both coliform and non-coliform gram negative bacteria. Coliform bacteria may include species of Escherichia, Klebsiella and Enterobacter, potential pathogens and/or spoilage organisms. Non-coliform gram negative bacteria may include spoilage organisms such as pseudomonads or potential pathogens such as Salmonella spp. or Shigella spp. Numbers of Lactobacillus spp. populations were estimated using acidified (adjusted to pH 5.5 with glacial acetic acid) Lactobacillus MRS agar (Difco Manual, Becton Dickinson & Co., Sparks, Md.) after incubation under anaerobic conditions; suspect colonies were confirmed by gram stain. […]

thermoduric bacteria = experiment: Thermoduric bacteria (laboratory pasteurization count) in raw milk under CO2 pressure (Example 1); settings: 4° C.
Protocol: as §1
(§2) The progression of these counts (total, Coliform/E. coli and thermoduric bacteria) in the treatment and control samples was tracked by conducting checks on the total aerobic counts (SPC) on treatment days 4 and 6. Based on the levels of total counts on days 4 and 6, analyses of total coli forms/E. coli and thermoduric bacteria after day 6 were conducted either in 1-day or 2-day intervals. The control sample final count was measured on days 4 and 6.
(§3) Initial total, coliform, and thermoduric counts were each determined for control and treated samples. Thermoduric organisms were enumerated by the laboratory pasteurization count (LPC) method described in the Standard Methods for the Examination of Dairy Products (Houghtby et al., 1992). The 3M Petri film count plate (3M Microbiology Products, St. Paul, Minn.) was used to enumerate total coli forms and Escherichia coli in the raw, treated and control milk samples.

Escherichia coli = experiment: E. coli count (Petrifilm) in raw milk under CO2 pressure (Example 1); settings: 4° C.
Protocol: as §1, §2, §3

[2] = 689 kPa CO2 pressure, 4 days, raw milk
[3] = 689 kPa CO2 pressure, 6 days, raw milk
[4] = 689 kPa CO2 pressure, 8 days, raw milk
[5] = 689 kPa CO2 pressure, 9 days, raw milk

## O=C=O [CO2, carbon dioxide]
[1]; 68, 172, 344, 516 and 689 kPa, 6.1° C., 4 days
  microbial growth compared to control milks: significantly reduced microbial growth
[1]; 68 kPa, 6.1° C., 4 days
  SPC increase from initial SPC: 1.28 log10 cfu/ml
[1]; 68 kPa, 24 h
  SPC increase: 1.07 log10 cfu/ml
[1]; 172 kPa, 6.1° C., 4 days
  SPC increase from initial SPC: 1.10 log10 cfu/ml
[1]; 172 kPa, 24 h
  SPC increase: 0.59 log10 cfu/ml
[1]; 344 kPa CO2, 24 h, 10° C.
  decrease in counts (SPC): 0.31 log10 cfu/ml
[1]; 344 kPa, 6.1° C., 4 days
  SPC increase from initial SPC: 0.94 log10 cfu/ml
[1]; 344 kPa, 24 h
  SPC reduction from initial SPC: 0.39 log10
[1]; 516 kPa CO2, 24 h, 10° C.
  decrease in counts (SPC): 0.56 log10 cfu/ml
[1]; 516 kPa CO2 pressure, 6.1° C., 4 days
  SPC of treated samples versus initial untreated samples: not significantly different
[1]; 516 kPa, 6.1° C., 4 days
  SPC increase from initial SPC: 0.82 log10 cfu/ml
[1]; 516 kPa, 24 h
  SPC reduction from initial SPC: 0.62 log10
[1]; 689 kPa CO2, 4° C.
  time for treated milk to reach SPC of 10^5 cfu/ml: 8 days
[1]; 689 kPa CO2, 24 h, 10° C.
  decrease in counts (SPC): 0.71 log10 cfu/ml
[1]; 689 kPa CO2 pressure, 4° C., 4 days, raw milk
  SPC counts, Treated, 4 Days: 7.8 * 10^2b cfu/ml
[1]; 689 kPa CO2 pressure, 4° C., 6 days, raw milk
  SPC counts, Treated, 6 Days: 4.4 * 10^4c cfu/ml
[1]; 689 kPa CO2 pressure, 4° C., 8 days, raw milk
  SPC counts, Treated, 8 Days: 9.7 * 10^4d cfu/ml
[1]; 689 kPa CO2 pressure, 4° C., 9 days, raw milk
  SPC counts, Treated, 9 Days: 2.4 * 10^5e cfu/ml
[1]; 689 kPa, 4° C.
  extension of treatment holding time compared to control: at least four days
[1]; 689 kPa, 4° C., 6 days
  treated milk SPC: 4.64 log10 cfu/ml
[1]; 689 kPa, 4° C., 8 days
  treated milk SPC: 4.99 log10 cfu/ml
[1]; 689 kPa, 4° C., 9 days
  treated milk SPC: 5.37 log10 cfu/ml
[1]; 689 kPa, 4° C., four days (from 3.48)
  treated milk SPC: 2.89 log10 cfu/ml
[1]; 689 kPa, 6.1° C., 4 days
  SPC lower than initial counts: 0.89 log10 cfu/ml
  SPC lower than the controls: 3.48 log10 cfu/ml
[1]; 689 kPa, 24 h, 10° C.
  difference in SPC between control and test milks: 2.68 log10 cfu/ml
[1]; 689 kPa, 24 h
  SPC reduction from initial SPC: 0.82 log10
[1]; 15 min
  SPC reduction versus control: 0.33 log10
[1]; 30 min
  SPC reduction versus control: 0.39 log10
[1]; all time-pressure combinations, even 68 kPa and 20° C.
  SPC of raw milk compared to untreated controls: significantly reduced
Thermoduric bacteria; [2]
  Thermoduric Bacteria counts, Treated, 4 Days: 1.0 * 10^0 cfu/ml
Thermoduric bacteria; [3]
  Thermoduric Bacteria counts, Treated, 6 Days: 9.0 * 10^0m cfu/ml
Thermoduric bacteria; [4]
  Thermoduric Bacteria counts, Treated, 8 Days: 2.1 * 10^1n cfu/ml
Thermoduric bacteria; [5]
  Thermoduric Bacteria counts, Treated, 9 Days: 3.7 * 10^1o cfu/ml
Thermoduric bacteria; 689 kPa, up to 9 days
  total thermoduric bacteria counts in treated milk: Neither E. coli nor total thermoduric bacteria counts increased
Escherichia coli; [2]
  E.coli counts, Treated, 4 Days: 1.7 * 10^1k cfu/ml
Escherichia coli; [3]
  E.coli counts, Treated, 6 Days: 1.7 * 10^1k cfu/ml
Escherichia coli; [4]
  E.coli counts, Treated, 8 Days: 1.7 * 10^1k cfu/ml
Escherichia coli; [5]
  E.coli counts, Treated, 9 Days: 1.5 * 10^1k cfu/ml
Escherichia coli; 689 kPa, up to 9 days
  E. coli counts in treated milk: Neither E. coli nor total thermoduric bacteria counts increased
